# US6737383B1, “Herbicidal oxadiazolidines” (priority 1999, dated 2004)
# Tests used:
# [1] = tested on: surinam grass; experiment: Test B pre/postemergence surinam grass; format: in vivo, Brachiaria decumbens
# Outline: (§1)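 Herbicidal effect was estimated by eye on a ten-point control scale after plants spent twelve to sixteen days in a greenhouse following soil or foliar treatment. Foliar sprays targeted plants at one to four leaves; all doses were formulated in a non-phytotoxic solvent with surfactant.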
# [2] = tested on: blackgrass; experiment: Test B pre/postemergence blackgrass; format: in vivo, Alopecurus myosuroides
# Outline: as §1
# [3] = tested on: wild oat; experiment: Test B pre/postemergence wild oat; format: in vivo, Avena fatua
# Outline: as §1
# [4] = tested on: purple nutsedge; experiment: Test B pre/postemergence purple nutsedge; format: in vivo, Cyperus rotundus
# Outline: as §1
# [5] = tested on: crabgrass; experiment: Test B pre/postemergence crabgrass; format: in vivo, Digitaria sanguinalis
# Outline: as §1
# [6] = tested on: bedstraw; experiment: Test B pre/postemergence bedstraw; format: in vivo, Galium aparine
# Outline: as §1
# [7] = tested on: sugar beet; experiment: Test B pre/postemergence sugar beet; format: in vivo, Beta vulgaris
# Outline: as §1
# [8] = tested on: pigweed; experiment: Test B pre/postemergence pigweed; format: in vivo, Amaranthus retroflexus
# Outline: as §1
# [9] = tested on: giant foxtail; experiment: Test B pre/postemergence giant foxtail; format: in vivo, Setaria faberii
# Outline: as §1
# [10] = tested on: soybean; experiment: Test B pre/postemergence soybean; format: in vivo, Glycine max
# Outline: as §1
# [11] = tested on: rape; experiment: Test B pre/postemergence rape; format: in vivo, Brassica napus
# Outline: as §1
# [12] = tested on: cocklebur; experiment: Test B pre/postemergence cocklebur; format: in vivo, Xanthium strumarium
# Outline: as §1
# [13] = tested on: velvetleaf; experiment: Test B pre/postemergence velvetleaf; format: in vivo, Abutilon theophrasti
# Outline: as §1
# [14] = tested on: corn; experiment: Test B pre/postemergence corn; format: in vivo, Zea mays
# Outline: as §1
# [15] = tested on: wheat; experiment: Test B pre/postemergence wheat; format: in vivo, Triticum aestivum
# Outline: as §1
# [16] = tested on: morningglory; experiment: Test B pre/postemergence morningglory; format: in vivo, Ipomoea hederacea
# Outline: as §1
# [17] = Preemergence, Rate 62 g/ha, scale of 0 to 10 where 0 is no effect and 10 is complete control
# [18] = Preemergence, Rate 250 g/ha, scale of 0 to 10 where 0 is no effect and 10 is complete control
# [19] = Preemergence, Rate 500 g/ha, scale of 0 to 10 where 0 is no effect and 10 is complete control
# [20] = Rate 62 g/ha, Postemergence, scale 0 to 10, 0 no effect, 10 complete control
# [21] = Rate 125 g/ha, Postemergence, scale of 0 to 10 where 0 is no effect and 10 is complete control
# [22] = Rate 125 g/ha, Preemergence, scale of 0 to 10 where 0 is no effect and 10 is complete control
# [23] = Rate 250 g/ha, Postemergence, scale of 0 to 10 where 0 is no effect and 10 is complete control
# [24] = Rate 500 g/ha, Postemergence, scale 0 to 10, 0 no effect, 10 complete control
smiles,measurement,setting,value
CC(=O)OCn1c(=O)on(C(=O)N(c2ccc(F)cc2)C(C)C)c1=O [Compound 292],B. signalgrass plant response rating,[1]; [17],0
same,B. signalgrass plant response rating,[1]; [18],0
same,"Plant response rating, B. signalgrass",[1]; [19],0
same,B. signalgrass plant response rating,[1]; [20],0
same,B. signalgrass plant response rating,[1]; [21],0
same,B. signalgrass plant response rating,[1]; [22],0
same,"Plant response rating, B. signalgrass",[1]; [23],0
same,B. signalgrass plant response rating,[1]; [24],0
same,Blackgrass plant response rating,[2]; [17],0
same,Blackgrass plant response rating,[2]; [18],0
same,"Plant response rating, Blackgrass",[2]; [19],0
same,Blackgrass plant response rating,[2]; [20],0
same,Blackgrass plant response rating,[2]; [21],0
same,Blackgrass plant response rating,[2]; [22],0
same,"Plant response rating, Blackgrass",[2]; [23],0
same,Blackgrass plant response rating,[2]; [24],0
same,Wild oats plant response rating,[3]; [17],0
same,Wild oats plant response rating,[3]; [18],0
same,"Plant response rating, Wild oats",[3]; [19],0
same,Wild oats plant response rating,[3]; [20],0
same,Wild oats plant response rating,[3]; [21],0
same,"Plant response rating, Wild oats",[3]; [23],0
same,Nutsedge plant response rating,[4]; [17],0
same,Nutsedge plant response rating,[4]; [18],0
same,"Plant response rating, Nutsedge",[4]; [19],0
same,Nutsedge plant response rating,[4]; [20],0
same,Nutsedge plant response rating,[4]; [21],0
same,Nutsedge plant response rating,[4]; [22],0
same,"Plant response rating, Nutsedge",[4]; [23],0
same,Crabgrass plant response rating,[5]; [17],0
same,Crabgrass plant response rating,[5]; [18],0
same,"Plant response rating, Crabgrass",[5]; [19],0
same,Crabgrass plant response rating,[5]; [20],0
same,Crabgrass plant response rating,[5]; [21],0
same,Crabgrass plant response rating,[5]; [22],0
same,"Plant response rating, Crabgrass",[5]; [23],0
same,Bedstraw plant response rating,[6]; [17],0
same,Bedstraw plant response rating,[6]; [18],0
same,"Plant response rating, Bedstraw",[6]; [19],0
same,Bedstraw plant response rating,[6]; [20],0
same,Bedstraw plant response rating,[6]; [21],0
same,Bedstraw plant response rating,[6]; [22],0
same,"Plant response rating, Bedstraw",[6]; [23],0
same,Bedstraw plant response rating,[6]; [24],0
same,Sugarbeets plant response rating,[7]; [17],0
same,Sugarbeets plant response rating,[7]; [18],0
same,"Plant response rating, Sugarbeets",[7]; [19],0
same,Sugarbeets plant response rating,[7]; [20],0
same,Sugarbeets plant response rating,[7]; [21],0
same,Sugarbeets plant response rating,[7]; [22],0
same,"Plant response rating, Sugarbeets",[7]; [23],0
same,Redroot pigweed plant response rating,[8]; [17],0
same,Redroot pigweed plant response rating,[8]; [18],0
same,"Plant response rating, Redroot pigweed",[8]; [19],0
same,Redroot pigweed plant response rating,[8]; [20],0
same,Redroot pigweed plant response rating,[8]; [21],0
same,Redroot pigweed plant response rating,[8]; [22],0
same,"Plant response rating, Redroot pigweed",[8]; [23],0
same,Giant foxtail plant response rating,[9]; [17],0
same,Giant foxtail plant response rating,[9]; [18],0
same,"Plant response rating, Giant foxtail",[9]; [19],0
same,Giant foxtail plant response rating,[9]; [20],0
same,Giant foxtail plant response rating,[9]; [21],0
same,Giant foxtail plant response rating,[9]; [22],0
same,"Plant response rating, Giant foxtail",[9]; [23],0
same,Soybean plant response rating,[10]; [17],0
same,Soybean plant response rating,[10]; [18],0
same,"Plant response rating, Soybean",[10]; [19],0
same,Soybean plant response rating,[10]; [20],0
same,Soybean plant response rating,[10]; [21],0
same,Soybean plant response rating,[10]; [22],0
same,"Plant response rating, Soybean",[10]; [23],1
same,Rape plant response rating,[11]; [17],0
same,Rape plant response rating,[11]; [18],0
same,"Plant response rating, Rape",[11]; [19],0
same,Rape plant response rating,[11]; [20],0
same,Rape plant response rating,[11]; [21],0
same,Rape plant response rating,[11]; [22],0
same,"Plant response rating, Rape",[11]; [23],0
same,Cocklebur plant response rating,[12]; [17],0
same,Cocklebur plant response rating,[12]; [18],0
same,"Plant response rating, Cocklebur",[12]; [19],0
same,Cocklebur plant response rating,[12]; [20],0
same,Cocklebur plant response rating,[12]; [21],0
same,Cocklebur plant response rating,[12]; [22],0
same,"Plant response rating, Cocklebur",[12]; [23],0
same,Cocklebur plant response rating,[12]; [24],0
same,Velvetleaf plant response rating,[13]; [17],0
same,Velvetleaf plant response rating,[13]; [18],0
same,"Plant response rating, Velvetleaf",[13]; [19],0
same,Velvetleaf plant response rating,[13]; [20],0
same,Velvetleaf plant response rating,[13]; [21],0
same,Velvetleaf plant response rating,[13]; [22],0
same,"Plant response rating, Velvetleaf",[13]; [23],0
same,Corn plant response rating,[14]; [17],0
same,Corn plant response rating,[14]; [18],0
same,"Plant response rating, Corn",[14]; [19],0
same,Corn plant response rating,[14]; [20],0
same,Corn plant response rating,[14]; [21],0
same,Corn plant response rating,[14]; [22],0
same,"Plant response rating, Corn",[14]; [23],0
same,Corn plant response rating,[14]; [24],0
same,Wheat plant response rating,[15]; [17],0
same,Wheat plant response rating,[15]; [18],0
same,"Plant response rating, Wheat",[15]; [19],0
same,Wheat plant response rating,[15]; [20],0
same,Wheat plant response rating,[15]; [21],0
same,Wheat plant response rating,[15]; [22],0
same,"Plant response rating, Wheat",[15]; [23],0
same,Morningglory plant response rating,[16]; [17],0
same,Morningglory plant response rating,[16]; [18],0
same,"Plant response rating, Morningglory",[16]; [19],0
same,Morningglory plant response rating,[16]; [20],0
same,Morningglory plant response rating,[16]; [21],1
same,Morningglory plant response rating,[16]; [22],0
same,"Plant response rating, Morningglory",[16]; [23],2
